For data set [1] the following is noted: cited from earlier work.
The nature of data set [2]: Maximum additive concentration (MAC) and degree of synergistic solubilisation in aqueous P407+P188 mixtures. The format is physicochemical. The method, then:
The maximum additive concentration (MAC) and degree of synergistic solubilisation was determined for a selection of water insoluble and sparingly soluble actives in aqueous P407+P188 mixtures.
For each active, the MAC was determined in the following aqueous poloxamer solutions:
As an aid to evaluating the level of synergistic solubilisation present within the system, the experimental data given in FIGS. 1-3 also includes the calculated MAC's of the systems that would be expected if the poloxamers comprising the mixture were solubilising independently and the overall MAC were simply the sum of the individual MAC's for the two components or admixture.

Where [3] appears, read: 3% w/v P407 + 7% w/v P188 in water.
[4] abbreviates: 7% w/v P407 + 3% w/v P188 in water.

Read-outs that look alike come from different tables or passages of the source.

`CN1C(=O)CN=C(c2ccccc2)c2cc(Cl)ccc21` [diazepam]: the “incidence of pain on injection” value is on record as 37% in data set [1] (formulated in a mixture of propylene glycol and water); 0% in data set [1] (formulated in an emulsion form).

Turning to `CCN(CC)CC(=O)Nc1c(C)cccc1C` [Lidocaine, 2-diethylamino-2′,6′-acetoxylidide], the “synergistic ratio, MACexperimental/MACadmixture” value is on record as 1.5 in data set [2] (setting [3]) and 1.4 in data set [2] (setting [4]).

As for `CCCCCCC(=O)OCCN1CCN(CCCN2c3ccccc3Sc3ccc(C(F)(F)F)cc32)CC1` [Fluphenazine enanthate, 2-{4-[3-(2-trifluoromethylphenothiazin-10-yl)propyl]piperazin-1-yl}ethyl heptanoate], the results for the “synergistic ratio, MACexperimental/MACadmixture” value in data set [2] (setting [3]) and in data set [2] (setting [4]) were 2.5 and 1.8, respectively.

`CCCCCCCCCC(=O)OCCN1CCN(CCCN2c3ccccc3Sc3ccc(C(F)(F)F)cc32)CC1` [Fluphenazine decanoate, 2-{4-[3-(2-trifluoromethyl-phenothiazin-10-yl)propyl]piperazin-1-yl}ethyl decanoate]: the “synergistic ratio, MACexperimental/MACadmixture” value in data set [2] (setting [3]) is on record as 3.6; in data set [2] (setting [4]) it was 1.6.

For the compound `Cc1ccc(C(C)C)cc1O` [Carvacrol, 2-methyl-5-(1-methylethyl)phenol], the “synergistic ratio, MACexperimental/MACadmixture” value was found to be 2.1 in data set [2] (setting [3]) and 1.8 in data set [2] (setting [4]).
